According to patent US20230203060A1 (GENFLEET THERAPEUTICS (SHANGHAI) INC., priority 2020, published 2023):

How the values were obtained:
Assay type in all cases: cell-based, human
[1] = tested on: A549 cells (KRAS G12S mutant); experiment: Cell proliferation inhibition experiment, 3D spheroid, CellTiter-Glo, A549; details: Homo sapiens, A549, 120 h, A549 (KRAS G12S mutant) 3D spheroid, 5 days with compound, CellTiter-Glo; read-out: A549 IC50
Procedure, shortened: (§1)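 3D spheroid format; 800 H358 / 400 A549 cells/well, 2% FBS. Cpd 3.16-fold series, 0.1% DMSO, 5 d. Readout CellTiter-Glo luminescence; IR% vs DMSO control and medium blank; 4-parameter IC50.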

[2] = tested on: KRAS G12C mutant NCI-H358 cells; experiment: Cell proliferation inhibition experiment, 3D spheroid, CellTiter-Glo, NCI-H358; details: Homo sapiens, NCI-H358, 120 h, NCI-H358 (KRAS G12C mutant) 3D spheroid, 5 days with compound, CellTiter-Glo; read-out: H358 IC50
Procedure, shortened: as §1

[3] = tested on: KRAS G12C mutant MIA PaCa-2 cells; experiment: Cell proliferation inhibition experiment, 3D spheroid, CellTiter-Glo, MIA PaCa-2; details: Homo sapiens, MIA PaCa-2, 120 h, 3D cell model in 384-well spheroid plate, 5 days, CellTiter-Glo; read-out: MIA-PaCa2 IC50
Procedure, shortened: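 Luminescent ATP read-out (CellTiter-Glo) after 5-day compound treatment of spheroids formed overnight from 200 MIA PaCa-2 cells/well; compounds in 3.16-fold series, 0.1% DMSO final. IC50 derived by four-parameter fit of percent inhibition, normalized to DMSO control and medium blank.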

Structure (SMILES) | IC50 [1] [nM] | IC50 [2] [nM] | IC50 [3] [nM]
C=CC(=O)N1CCN2C(=O)c3c(N4CCC5CC54)nc(-c4c(O)cccc4F)c(Cl)c3OC[C@H]2C1 (stereo partly drawn) [Z39, (6aR)-8-acryloyl-1-(2-azabicyclo[3.1.0]hexart-2-yl)-4-chloro-3-(2-fluoro-6-hydroxyphenyl)-6,6a,7,8,9,10-hexahydro-12H-pyrazino[2,1-c]pyrido[3,4-f][1,4]oxazepin-12-one] | 3050 | 9 | 20
C=CC(=O)N1CCN2C(=O)c3c(N4CCC[C@H]4C)nc(-c4c(O)cccc4F)c(Cl)c3OC[C@H]2C1 [Z48, (6aR)-8-acryloyl-1-((R)-2-methylpyrrolidin-1-yl)-4-chloro-3-(2-fluoro-6-hydroxyphenyl)-6,6a,7,8,9,10-hexahydro-12H-pyrazino[2,1-c]pyrido[3,4-f][1,4]oxazepin-12-one] | > 5000 | 15 | 28
C=CC(=O)N1CCN2C(=O)c3c(N4CCN(C)C[C@@H]4C)nc(-c4c(F)cccc4Cl)c(Cl)c3OC[C@H]2C1 [Z547, (6aR)-8-acryloyl-4-chloro-3-(2-chloro-6-fluorophenyl)-1-((S)-2,4-dimethylpiperazin-1-yl)-6,6a,7,8,9,10-hexahydro-12H-pyrazino[2,1-c]pyrido[3,4-f][1,4]oxazepin-12-one] | 8160 | 19.3 | 43
C=CC(=O)N1CCN2C(=O)c3c(N4C[C@@H](N5CCN(C)CC5)CC4(C)C)nc(-c4ccccc4F)c(F)c3OC[C@H]2C1 (single isomer, unassigned) [Z474-1] | 7950 | 8.3 | 13
C=CC(=O)N1CCN2C(=O)c3c(N4CCN(C)C[C@@H]4C)nc(-c4ccccc4F)c(Cl)c3OC[C@H]2C1 [Z407-1, (R)-8-acryloyl-4-chloro-1-((S)-2,4-dimethylpiperazin-1-yl)-3-(2-fluorophenyl)-6,6a,7,8,9,10-hexahydro-12H-pyrazino[2,1-c]pyrido[3,4-f][1,4]oxazepin-12-one] | 9160 | 18.8 | 39
C=CC(=O)N1CCN2C(=O)c3c(N4C[C@H](N5CC(C(F)(F)F)C5)CC4(C)C)nc(-c4ccccc4F)c(Cl)c3OC[C@H]2C1 (single isomer, unassigned) [Z608-1] | 2950 | 99.5 | 330
C=CC(=O)N1CCN2C(=O)c3c(N[C@H](C)c4ccccc4)nc(-c4c(O)cccc4F)c(Cl)c3OC[C@H]2C1 [Z28, (6aR)-8-acryloyl-4-chloro-3-(2-fluoro-6-hydroxyphenyl)-1-(((R)-1-phenylethyl)amino)-6,6a,7,8,9,10-hexahydro-12H-pyrazino[2,1-c]pyrido[3,4-f][1,4]oxazepin-12-one] | > 5000 | 62 | 150
C=CC(=O)N1CCN2C(=O)c3c(N4CCCC45CC5)nc(-c4c(O)cccc4F)c(Cl)c3OC[C@H]2C1 [Z56, (6aR)-8-acryloyl-4-chloro-3-(2-fluoro-6-hydroxyphenyl)-1-(4-azaspiro[2.4]heptan-4-yl)-6,6a,7,8,9,10-hexahydro-12H-pyrazino[2,1-c]pyrido[3,4-f][1,4]oxazepin-12-one] | > 7000 | 17 | 71
C=CC(=O)N1CCN2C(=O)c3c(N4CC(N(C)CC(F)F)CC4(C)C)nc(-c4ccccc4F)c(Cl)c3OCC2C1 (single isomer, unassigned) [Z659-2] | 2660 | 1 | 4
C=CC(=O)N1CCN2C(=O)c3c(N4C[C@@H](N5CC(F)(F)C5)CC4(C)C)nc(-c4ccccc4F)c(Cl)c3OC[C@H]2C1 (single isomer, unassigned) [Z525-2] | 5740 | 7.8 | 14
C=CC(=O)N1CCN2C(=O)c3c(N4CC(N5CCN(C)CC5)CC4(C)C)nc(-c4ccccc4F)c(Cl)c3OC[C@H]2C1 (stereo partly drawn) [Z454, (6aR)-8-acryloyl-4-chloro-1-(2,2-dimethyl-4-(4-methylpiperazin-1-yl)pyrrolidin-1-yl)-3-(2-fluorophenyl)-6,6a,7,8,9,10-hexahydro-12H-pyrazino[2,1-c]pyrido[3,4-f][1,4]oxazepin-12-one] | 2130 | 2 | 4.7
C=CC(=O)N1CCN2C(=O)c3c(N4CC[C@H](N(C)C)C4(C)C)nc(-c4ccccc4F)c(Cl)c3OC[C@H]2C1 [Z502-2, (6aR)-8-acryloyl-4-chloro-1-(3-(dimethylamino)-2,2-dimethylpyrrolidin-1-yl)-3-(2-fluorophenyl)-6,6a,7,8,9,10-hexahydro-12H-pyrazino[2,1-c]pyrido[3,4-f][1,4]oxazepin-12(6aH)-one] | 6140 | 11 | 24.1
C=CC(=O)N1CCN2C(=O)c3c(N4C[C@@H](N(C)C)CC4(C)C)nc(-c4cccc(C)c4F)c(Cl)c3OC[C@H]2C1 (single isomer, unassigned) [Z472-1] | 1740 | 16 | 74
C=CC(=O)N1CCN2C(=O)c3c(N4C[C@@H](N5CCN(C)CC5)C[C@@H]4C)nc(-c4ccccc4F)c(Cl)c3OC[C@H]2C1 [Z470-2] | 9610 | 3 | 4
C=CC(=O)N1CCN2C(=O)c3c(N4C[C@@H](N5CC(F)C5)CC4(C)C)nc(-c4ccccc4F)c(Cl)c3OC[C@H]2C1 [Z480-1, (R)-8-acryloyl-4-chloro-1-((S)-4-(3-fluoroazetidin-1-yl)-2,2-dimethylpyrrolidin-1-yl)-3-(2-fluorophenyl)-6,6a,7,8,9,10-hexahydro-12H-pyrazino[2,1-c]pyrido[3,4-f][1,4]oxazepin-12-one] | 3980 | 3.4 | 10
C=CC(=O)N1CCN2C(=O)c3c(N4C[C@H](N5CC(F)C5)CC4(C)C)nc(-c4ccccc4F)c(F)c3OC[C@H]2C1 [Z654-2, (R)-8-acryloyl-4-fluoro-1-((R)-4-(3-fluoroazetidin-1-yl)-2,2-dimethylpyrrolidin-1-yl)-3-(2-fluorophenyl)-6,6a,7,8,9,10-hexahydro-12H-pyrazino[2,1-c]pyrido[3,4-f][1,4]oxazepin-12-one] | 8580 | 15 | 50.2
C=CC(=O)N1CCN2C(=O)c3c(N4CC(N(C)C)CC4(C)C)nc(-c4ccccc4F)c(Cl)c3OC[C@H]2C1 (single isomer, unassigned) [Z453-2] | 6720 | 16.6 | 45.2
C=CC(=O)N1CCN2C(=O)c3c(N4C[C@H](N5CCN(C)CC5)CC4(C)C)nc(-c4ccccc4F)c(Cl)c3OC[C@H]2C1 (single isomer, unassigned) [Z454-2] | 2660 | 7.2 | 16.8
C=CC(=O)N1CCN2C(=O)c3c(N4CC(N(C)CCO)CC4(C)C)nc(-c4ccccc4F)c(Cl)c3OC[C@H]2C1 (stereo partly drawn) [Z658, (6aR)-8-acryloyl-4-chloro-3-(2-fluorophenyl)-1-(4-((2-hydroxyethyl)(methyl)amino)-2,2-dimethylpyrrolidin-1-yl)-6,6a,7,8,9,10-hexahydro-12H-pyrazino[2,1-c]pyrido[3,4-f][1,4]oxazepin-12-one] | 5020 | 2.6 | 11.2
C=CC(=O)N1CCN2C(=O)c3c(N4C[C@@H](O)CC4(C)C)nc(-c4ccccc4F)c(F)c3OC[C@H]2C1 (single isomer, unassigned) [Z408-1] | 9250 | 21.7 | 79.3
C=CC(=O)N1CCN2C(=O)c3c(N4C[C@H](N(C)CCO)CC4(C)C)nc(-c4ccccc4F)c(Cl)c3OC[C@H]2C1 (single isomer, unassigned) [Z658-2] | 4720 | 12 | 31
C=CC(=O)N1CCN2C(=O)c3c(N4C[C@@H](N5CC(C#N)C5)CC4(C)C)nc(-c4ccccc4F)c(Cl)c3OC[C@H]2C1 (single isomer, unassigned) [Z637-2] | 2520 | 4.5 | 10
C=CC(=O)N1CCN2C(=O)c3c(N4CCN(C)C[C@@H]4C)nc(-c4c(O)cccc4F)c(Cl)c3OC[C@H]2C1 [Z51, (6aR)-8-acryloyl-4-chloro-1-((S)-2,4-dimethylpiperazin-1-yl)-3-(2-fluoro-6-hydroxyphenyl)-6,6a,7,8,9,10-hexahydro-12H-pyrazino[2,1-c]pyrido[3,4-f][1,4]oxazepin-12-one] | > 5000 | 4 | 7
C=CC(=O)N1CCN2C(=O)c3c(N4C[C@H](N5CCN(C)CC5)CC4(C)C)nc(-c4c(O)cccc4F)c(Cl)c3OC[C@H]2C1 (single isomer, unassigned) [Z469-2] | 8460 | 2 | 4
C=CC(=O)N1CCN2C(=O)c3c(N4CC(NC)CC4(C)C)nc(-c4ccccc4F)c(Cl)c3OC[C@H]2C1 (stereo partly drawn) [Z661, (6aR)-8-acryloyl-4-chloro-1-(2,2-dimethyl-4-(methylamino)pyrrolidin-1-yl)-3-(2-fluorophenyl)-6,6a,7,8,9,10-hexahydro-12H-pyrazino[2,1-c]pyrido[3,4-f][1,4]oxazepin-12-one] | 2660 | 4 | 13.1
